# Assay results from US7384949B2, “Thieno(3,2-d)pyrimidines and furano(3,2-d)pyrimidines and their use as purinergic receptor antagonists” (Vernalis Research Limited, priority 2001, dated 2008).
# Experiments:
# [1] = target: human adenosine A2A receptors (Homo sapiens, UniProt P29274); assay: in vitro binding to human adenosine A2A receptors, displacement of [3H]-CGS 21680; conditions: hA2A receptors, radioligand [3H]-CGS 21680
# Source text: Adenosine Receptor Binding Binding Affinities at hA2A Receptors
# catalepsy = conditions: cited from earlier work
# Parkinsonian patients = conditions: cited from earlier work
# human adenosine A2A receptors, sequence (P29274 whole entry): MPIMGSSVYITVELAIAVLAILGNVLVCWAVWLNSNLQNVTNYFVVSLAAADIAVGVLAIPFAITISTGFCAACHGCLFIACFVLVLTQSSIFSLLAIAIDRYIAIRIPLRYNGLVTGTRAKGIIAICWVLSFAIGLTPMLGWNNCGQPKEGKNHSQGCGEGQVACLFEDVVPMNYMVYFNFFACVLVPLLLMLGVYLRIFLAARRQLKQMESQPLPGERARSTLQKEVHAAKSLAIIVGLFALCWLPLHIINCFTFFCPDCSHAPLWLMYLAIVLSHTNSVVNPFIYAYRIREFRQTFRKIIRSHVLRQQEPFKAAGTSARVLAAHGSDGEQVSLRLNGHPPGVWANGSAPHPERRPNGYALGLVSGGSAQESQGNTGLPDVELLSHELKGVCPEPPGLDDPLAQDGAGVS
Ki [1] [nM],Compound,further results
3,"CC(C)(C)c1nc(-c2nccs2)c2sccc2n1 [Example 139, 2-tert-butyl-4-(2-thiazolyl)thieno[3,2-d]pyrimidine]",–
–,"CCCn1c(=O)c2c(nc(/C=C/c3ccc(OC)c(OC)c3)n2C)n(CCC)c1=O [KF 17837, (E)-8-(3,4-dimethoxystyryl)-1,3-dipropyl-7-methylxanthine]",anticataleptic effects of a subthreshold dose of L-DOPA plus benserazide (catalepsy; in vivo): potentiated; catalepsy induced by haloperidol and reserpine (catalepsy; in vivo): reduced; cataleptic responses induced by intracerebroventricular CGS 21680 (catalepsy; oral administration): significantly ameliorated
6,"Cc1nc(-c2nc(N(C)C)nc3ccsc23)sc1C [Example 105, N,N-dimethyl-4-(4,5-dimethyl-2-thiazolyl)thieno[3,2-d]pyrimidine-2-amine]",–
5,"Cc1cnc(-c2nc(N(C)C)nc3ccsc23)s1 [Example 104, N,N-dimethyl-4-(5-methyl-2-thiazolyl)thieno[3,2-d]pyrimidine-2-amine]",–
19,"C=CCNc1nc(-c2ccco2)c2sccc2n1 [Example 40, N-allyl-4-(2-furyl)thieno[3,2-d]pyrimidine-2-amine]",melting point: 101 to 102 °C
14,"Nc1nc(-c2ccco2)c2sccc2n1 [Example 79, 4-(2-furyl)thieno[3,2-d]pyrimidine-2-amine]",–
1,"CCc1nc(-c2nc(C)cs2)c2sccc2n1 [Example 80, 2-ethyl-4-(4-methyl-2-thiazolyl)thieno[3,2-d]pyrimidine]",–
11,"OCCNc1nc(-c2ccco2)c2scc(Br)c2n1 [Example 15, 7-bromo-4-(2-furyl)-N-(2-hydroxyethyl)thieno[3,2-d]pyrimidine-2-amine]",melting point: 173.4 to 174.4 °C
8,COCCNc1nc(-c2ccco2)c2scc(Br)c2n1 [Example 71],melting point: 65 to 65.4 °C
2,"CCc1nc(-c2nccs2)c2sccc2n1 [Example 82, 2-ethyl-4-(2-thiazolyl)thieno[3,2-d]pyrimidine]",–
–,"Cn1c(=O)c2[nH]cnc2n(C)c1=O [theophylline, 1,3-dimethylxanthine]","mean objective disability scores (Parkinsonian patients; 15 Parkinsonian patients, up to 12 weeks, 150 mg/day): significant improvements; patients reporting moderate or marked subjective improvement (Parkinsonian patients; of 15 Parkinsonian patients, up to 12 weeks, 150 mg/day): 11; serum theophylline levels (Parkinsonian patients; slow release oral preparation 150 mg/day, after one week): 4.44 mg/L"
20,"O=C(NCCNc1nc(-c2ccco2)c2sccc2n1)OCc1ccccc1 [Example 89, benzyl (2-(4-(2-furyl)thieno[3,2-d]pyrimidine-2-ylamino)ethyl)carbamate]",–
4,"CC(C)c1nc(-c2ccccn2)c2sccc2n1 [Example 70, 2-isopropyl-4-(2-pyridyl)thieno[3,2-d]pyrimidine]",–
2,"CN(C)c1nc(-c2nccs2)c2sccc2n1 [Example 65, N,N-dimethyl-4-(2-thiazolyl)thieno[3,2-d]pyrimidine-2-amine]",–
6,"ClCCc1nc(-c2nccs2)c2sccc2n1 [Example 154, 2-(2-chloroethyl)-4-(2-thiazolyl)thieno[3,2-d]pyrimidine]",–
1,"CC(C)c1nc(-c2nccs2)c2sccc2n1 [Example 113, 2-isopropyl-4-(2-thiazolyl)thieno[3,2-d]pyrimidine]",–
35,"Nc1nc(-c2nccs2)c2sccc2n1 [Example 110, 4-(2-thiazolyl)thieno[3,2-d]pyrimidine-2-amine]",–
